Assay results: publication PMC3368272, “The host-seeking inhibitory peptide, Aea-HP-1, is made in the male accessory gland and transferred to the female during copulation” (Peptides, 2012)
Square brackets hold non-standard residues; d marks the D form. Peptide text beside a SMILES is read from it. Hyp = O=C(O)[C@@H]1C[C@@H](O)CN1; pGlu = O=C1CC[C@@H](C(=O)O)N1

Columns and labels:
[1] = mosquito hemolymph, after 30 min; cited from earlier work
Description: (§1) Aea-HP-1 has been tested for myogenic and behavior modifying activity in A. aegypti.

[2] = tested on: isolated oviduct and hindgut of female mosquitoes; details: female A. aegypti tissues; cited from earlier work
Description: as §1

[3] = tested on: non-öogenic females; details: cited from earlier work
Description: as §1

[4] = set-up: species or system Aedes aegypti; details: in vivo
Method: Tissues were dissected from adult mosquitoes in phosphate buffered saline (PBS, MP Biomedicals, Cambridge, UK) and collected into acidified methanol (86%, v/v, aqueous methanol and 5% v/v glacial acetic acid). MAGs and male seminal vesicles (SVs) (5 pairs per 100 μl) were typically prepared for analysis by infusing whole tissues in acidified methanol for 30 min, then centrifuging for 10 min at 13,000 rpm in a bench-top microcentrifuge, retaining the supernatant. Homogenization was avoided to provide a cleaner sample for analysis. […]
Mosquito tissues were analyzed for Aea-HP-1 by subjecting either acidified methanol extracts or intact tissues to MALDI/TOF-MS analysis. […]
MALDI/TOF-MS was used to analyze methanol extracts for the presence of Aea-HP-1 in the reproductive tract (uterus, spermathecae, bursa copulatrix, oviduct, but not the ovary) of individual virgin and post-mated females obtained by introducing a single female into a cage of 50 males until mating was observed (<5 min). […] In contrast, the molecular ions for Aea-HP-1 (m/z, 1227.9) and Aea-HP-3 (m/z, 1211.9) were detected in methanol extracts of tissues from nine out of thirteen post-copulated females. Extracts were also analyzed quantitatively by ELISA using synthetic Aea-HP-1 as a standard and the results were compared to the amount of material found in extracts of MAGs dissected from virgin males. […]

[5] = target: T1, D. melanogaster sex peptide receptor (SPR) (Drosophila melanogaster, UniProt Q8SWR3); assay: Ligand-mediated receptor activation, CHO-K1 cells expressing aequorin; type: cell-based; details: D. melanogaster SPR in CHO cells with aequorin and Gαqi; up to 10 μM; n = 4
T1 construct: expressed in transfected cells; host or cells: CHO-K1 cells co-expressing aequorin and chimaeric G-protein Gαqi
T1 sequence (Q8SWR3 1-435): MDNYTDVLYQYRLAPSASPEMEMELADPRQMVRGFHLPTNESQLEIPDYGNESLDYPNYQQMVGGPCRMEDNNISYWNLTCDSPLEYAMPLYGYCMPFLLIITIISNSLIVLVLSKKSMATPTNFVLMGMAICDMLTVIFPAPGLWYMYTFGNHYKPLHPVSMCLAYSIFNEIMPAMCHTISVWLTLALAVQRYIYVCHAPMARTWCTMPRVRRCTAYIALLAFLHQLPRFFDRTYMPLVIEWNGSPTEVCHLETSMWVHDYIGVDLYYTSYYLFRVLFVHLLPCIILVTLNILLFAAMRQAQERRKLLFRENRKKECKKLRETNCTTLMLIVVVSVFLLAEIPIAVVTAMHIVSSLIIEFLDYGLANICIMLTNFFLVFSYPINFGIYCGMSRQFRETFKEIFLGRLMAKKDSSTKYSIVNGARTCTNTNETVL
Method: (§2) Ligand-mediated receptor activation was measured using an established expression system employing CHO-K1 cells expressing the Ca^2+ reporter aequorin [42]. The construction of the expression constructs for D. melanogaster sex peptide receptor (SPR) and A. aegypti SPR and the measurement of the luminescent signals have been reported previously.
(§3) Fig. 6 Aea-HP-1 is not an active agonist for SPRs from D. melanogaster (A) and A. aegypti (B). Luminescent responses of CHO cells expressing SPR, aequorin and a chimaeric G-protein, Gαqi, and treated with varying concentrations of Aea-HP-1 and SP. Each data point is mean ± s.d. (n = 4).

[6] = tested on: virgin A. aegypti females; assay: Mating rejection after injection into the hemocoel of virgin females; type: in vivo, Aedes aegypti; details: 0.1–1 μg injected into the hemocoel of virgin A. aegypti females; data not presented
Description: Transplantation of MAGs, or injection of gland extracts, into female A. aegypti can elicit a variety of post-mating responses including refractoriness to re-mating and inhibition of host-seeking and biting behavior [13]. […] This failure might be due to lack of accessibility and the known rapid catabolism of Aea-HP-1 in the hemolymph. D. melanogaster SP has wide-ranging effects on physiology and behavior some of which are mediated primarily through activation of the SP/MIP receptor that is expressed in sensory neurons of the uterus. The D. melanogaster SP receptor and its A. aegypti orthologue are also strongly activated by myoinhibitory peptides (MIPs), a family of peptides that are found in species from different insect orders and are considered to be the ancestral ligands for these receptors [[19,33,41]]. The receptors are also activated by unidentified ligands present in whole body extract of adult A. aegypti. Although Aea-HP-1 has no obvious structural similarity to either SP or MIP, the promiscuity of the SP/MIP receptor led us to consider the possibility that the head peptide might also be an agonist of the MIP receptor.

[7] = tested on: A. aegypti SPR; assay: Ligand-mediated receptor activation, CHO-K1 cells expressing aequorin; type: cell-based, Aedes aegypti; details: A. aegypti SPR in CHO cells with aequorin and Gαqi; up to 10 μM; n = 4
Method: as §2, §3

[8] = tested on: virgin D. melanogaster females; assay: Post-mating response (receptivity) after injection into virgin females; type: in vivo, Drosophila melanogaster; details: injected into the hemocoel of virgin D. melanogaster females; receptivity assayed 5 h after injection with naive Canton-S males
Method: Injections of either Aea-HP-1 or SP into the abdomen of virgin D. melanogaster females were performed as described previously. After injection, females were transferred to individual food vials and were tested after 5 h for receptivity with a naive Canton S male.
Receptivity of virgin females assayed 5 h after injection with either synthetic peptides (Aea-HP-1 or SP) or Ringer's solution alone. Wild type W1118 females were injected and assayed with naïve Canton-S males. Numbers in parenthesis indicate numbers of animal assayed. n.s., p > 0.05; ***p < 0.0001, one-way ANOVA (Tukey post-test) compared with Ringer treatment.

CC(C)C[C@H](NC(=O)[C@H](CO)NC(=O)[C@@H]1C[C@@H](O)CN1C(=O)[C@@H]1CCCN1C(=O)[C@H](CCCNC(=N)N)NC(=O)[C@@H]1CCC(=O)N1)C(=O)N[C@@H](CCCCN)C(=O)N[C@H](C(=O)N[C@@H](CCCNC(=N)N)C(=O)N[C@@H](Cc1ccccc1)C(N)=O)[C@@H](C)O [Aea-HP-1, pERPhPSLKTRFamide] ([pGlu]RP[Hyp]SLKTRF-NH2)
peptide remaining in the circulation [1]: around 17%
stimulation of contractions of isolated oviduct and hindgut [2]: did not stimulate contractions
effect on host-seeking behavior ([3]; injected into female A. aegypti): inhibiting host-seeking behavior
duration of reduction in host-seeking ([3]; injected into non-öogenic female A. aegypti): up to 5 h
persistence in the female reproductive tract after copulation [4]: less than 2 h
activation of SP/MIP receptor (luminescent response) [5]: did not activate
induction of mating rejection [6]: not been able to show that Aea-HP-1 can induce mating rejection
activation of SP/MIP receptor (luminescent response) [7]: did not activate
rejection of male advances (post-mating response) [8]: did not elicit rejection of male advances
